Reference: patent US20230322789A1, “PYRAZOLOPYRIDAZINONE COMPOUND, AND PHARMACEUTICAL COMPOSITION AND USE THEREOF” (BroadenBio Co., Ltd., priority 2020, published 2023)
Structures can show the parent of a compound that is named as a salt. Each block holds one compound with its values, some of them ahead of it.

Experiments:
[1] = biological target: HPK1 (Homo sapiens (Human), UniProt Q92918); experiment: HPK1 kinase activity inhibition test (ADP-Glo, luminescence); format: biochemical; settings: HPK1 5 nM, ATP 2 μM, read-out: IC50, inhibitory effects of compounds on HPK1 kinase activity
Sequence of HPK1 (Q92918 whole entry): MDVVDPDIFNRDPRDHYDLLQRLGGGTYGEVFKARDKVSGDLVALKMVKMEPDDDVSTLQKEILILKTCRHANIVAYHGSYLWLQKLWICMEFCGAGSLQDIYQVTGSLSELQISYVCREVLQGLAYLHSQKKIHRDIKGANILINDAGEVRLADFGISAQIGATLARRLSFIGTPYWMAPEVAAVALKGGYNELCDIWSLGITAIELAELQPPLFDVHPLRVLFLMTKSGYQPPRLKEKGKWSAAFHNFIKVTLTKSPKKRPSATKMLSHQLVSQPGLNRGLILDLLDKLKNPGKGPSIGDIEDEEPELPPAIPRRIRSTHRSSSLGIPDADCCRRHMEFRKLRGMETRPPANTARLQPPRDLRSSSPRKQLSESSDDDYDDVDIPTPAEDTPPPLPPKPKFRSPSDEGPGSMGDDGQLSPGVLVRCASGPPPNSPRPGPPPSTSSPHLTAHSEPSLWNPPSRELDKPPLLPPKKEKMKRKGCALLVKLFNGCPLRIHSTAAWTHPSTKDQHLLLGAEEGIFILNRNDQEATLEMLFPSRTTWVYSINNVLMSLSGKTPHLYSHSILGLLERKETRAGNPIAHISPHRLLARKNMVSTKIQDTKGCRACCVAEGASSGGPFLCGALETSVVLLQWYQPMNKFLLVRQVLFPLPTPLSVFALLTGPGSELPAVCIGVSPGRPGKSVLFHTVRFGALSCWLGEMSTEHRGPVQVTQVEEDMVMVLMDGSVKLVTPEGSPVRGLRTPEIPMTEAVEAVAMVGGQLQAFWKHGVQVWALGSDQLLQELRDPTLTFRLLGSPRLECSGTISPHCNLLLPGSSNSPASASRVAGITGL
How it was run: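 HPK1 autophosphorylation was run without added substrate. Kinase and compound were preincubated 10 min at 25° C., then ATP was added for 60 min at 25° C. ADP formed was detected by ADP-Glo luminescence, and IC50 was taken from a four-parameter nonlinear fit.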

[2] = tested on: Human Jurkat-E6-1 cells; experiment: Measurement of IL-2 secretion of Jurkat cells by ELISA; format: cell-based; settings: anti-CD3/anti-CD28 stimulation 24 hours; for activity at 1 µM: test compound 1.0 μM
Description: 2. Measurement of IL-2 Secretion of Jurkat Cells by ELISA
Human Jurkat-E6-1 cells were incubated with various concentrations of test compounds for 30 minutes in a humidified incubator at 37° C. and […]. Cells were transferred to cell culture plates pre-coated with anti-human CD3 antibody, then soluble anti-human CD28 antibody was added, and cells were stimulated for 24 hours at 37° C. and 5% CO2 in a humidified incubator. The cell culture medium was collected by centrifugation, and was then transferred to a 96-well transparent microtiter plate (Thermo) pre-coated with anti-human IL-2 antibody, incubated at room temperature for 2 hours, and gently shaken, washed with washing buffer for 4 times, and then followed the ELISA MAX Deluxe Set Human IL-2 (BioLegend) kit procedure, used a microplate reader (Molecular Device, i3X) to read the GD value. The best standard curve was selected by the microplate reader application software, and the corresponding concentration was calculated according to the GD value of the standard. Results are expressed as a percentage of the amount of IL-2 secreted from compound-treated/DMSO-treated cells.

[3] = Homo sapiens, Jurkat E6.1, test compound 3.0 μM, read-out: Percentage of the amount of IL-2 secreted from compound treated/DMSO-treated cells
[4] = Homo sapiens, Jurkat E6.1, read-out: Percentage of the amount of IL-2 secreted from compound treated/DMSO-treated cells

Structure (SMILES): COc1cccc(F)c1-n1nc2c(-c3cccc(N4CCCC(N)C4)c3)n[nH]c2cc1=O (centres unmarked) [Compound 204]
IC50 [1]: ≤ 50 nM
Percentage of the amount of IL-2 secreted from compound treated/DMSO-treated cells ([2]; test compound 3.0 μM): 260%

Structure (SMILES): Cc1cccc(F)c1-n1nc2c(-c3ccc4c(c3)CN(C3CNC3)CC4)n[nH]c2cc1=O [Compound 164, 3-(2-(azetidin-3-yl)-1,2,3,4-tetrahydroisoquinolin-7-yl)-5-(2-fluoro-6-methylphenyl)-1H-pyrazolo[4,3-c]pyridazin-6(5H)-one hydrochloride]
IC50 [1]: 50 to 500 nM
activity at 3 µM [2, 3]: 159%

Structure (SMILES): COc1cccc(F)c1-n1nc2c(-c3ccc(N4CCN(C)CC4)cc3)n[nH]c2c(C)c1=O [Compound 154, 5-(2-fluoro-6-methoxyphenyl)-7-methyl-3-(4-(4-methylpiperazin-1-yl)phenyl)-1H-pyrazolo[4,3-c]pyridazin-6(5H)-one]
IC50 [1]: 50 to 500 nM
activity at 1 µM [2, 4]: 382%

Structure (SMILES): COc1cccc(F)c1-n1nc2c(-c3cnn(C4CCN(C)CC4)c3)n[nH]c2cc1=O [Compound 20]
IC50 [1]: 50 to 500 nM
activity at 1 µM [2, 4]: 329%

Structure (SMILES): COc1cccc(F)c1-n1nc2c(-c3cnn(C)c3)n[nH]c2cc1=O [Compound 21, 5-(2-fluoro-6-methoxyphenyl)-3-(1-methyl-1H-pyrazol-4-yl)-1H-pyrazolo[4,3-c]pyridazin-6(5H)-one]
IC50 [1]: 50 to 500 nM
activity at 3 µM [2, 3]: 258%

Structure (SMILES): Cc1cccc(F)c1-n1nc2c(-c3ccc(N4CCN5CCOC[C@@H]5C4)cc3)n[nH]c2cc1=O [Compound 133, (S)-5-(2-fluoro-6-methylphenyl)-3-(4-(hexahydropyrazino[2,1-c][1,4]oxazin-8(1H)-yl)phenyl)-1H-pyrazolo[4,3-c]pyridazin-6(5H)-one]
IC50 [1]: ≤ 50 nM
activity at 3 µM [2, 3]: 800%

Further lines, with some results ahead:

IC50 [1]: ≤ 50 nM
Structure (SMILES): Cc1cccc(F)c1-n1nc2c(-c3ccc(OCC4CNCCN4)cc3)n[nH]c2cc1=O (centres unmarked) [Compound 93, 5-(2-fluoro-6-methylphenyl)-3-(4-(piperazin-2-ylmethoxy)phenyl)-1H-pyrazolo[4,3-c]pyridazin-6(5H)-one]
activity at 3 µM [2, 3]: 210%

IC50 [1]: ≤ 50 nM
Structure (SMILES): COc1cccc(F)c1-n1nc2c(-c3ccc(N4CCC(C)(OC)CC4)cc3)n[nH]c2cc1=O [Compound 141, 5-(2-fluoro-6-methoxyphenyl)-3-(4-(4-methoxy-4-methylpiperidin-1-yl)phenyl)-1H-pyrazolo[4,3-c]pyridazin-6(5H)-one]
activity at 3 µM [2, 3]: 390%

IC50 [1]: ≤ 50 nM
Structure (SMILES): COc1cccc(F)c1-n1nc2c(-c3cc(N4CCN(C)CC4)ccc3F)n[nH]c2cc1=O [Compound 210, 3-(2-fluoro-5-(4-methylpiperazin-1-yl)phenyl)-5-(2-fluoro-6-methoxyphenyl)-1H-pyrazolo[4,3-c]pyridazin-6(5H)-one]
activity at 1 µM [2, 4]: 298%

IC50 [1]: ≤ 50 nM
Structure (SMILES): COc1cc(F)cc(F)c1-n1nc2c(-c3ccc(N4CCN(C)CC4)cc3)n[nH]c2cc1=O [Compound 77, 5-(2,4-difluoro-6-methoxyphenyl)-3-(4-(4-methylpiperazin-1-yl)phenyl)-1H-pyrazolo[4,3-c]pyridazin-6(5H)-one]
activity at 1 µM [2, 4]: 233%

IC50 [1]: ≤ 50 nM
Structure (SMILES): COc1cccc(F)c1-n1nc2c(-c3ccc(N4CCC(N5CCN(C)CC5)CC4)cc3)n[nH]c2cc1=O [Compound 145, 5-(2-fluoro-6-methoxyphenyl)-3-(4-(4-(4-methylpiperazin-1-yl)piperidin-1-yl)phenyl)-1H-pyrazolo[4,3-c]pyridazin-6(5H)-one]
activity at 3 µM [2, 3]: 776%

IC50 [1]: ≤ 50 nM
Structure (SMILES): CCc1cccc(F)c1-n1nc2c(-c3ccc(N4CCN(C)CC4)cc3)n[nH]c2cc1=O [Compound 8, 5-(2-ethyl-6-fluorophenyl)-3-(4-(4-methylpiperazin-1-yl)phenyl)-1H-pyrazolo[4,3-c]pyridazin-6(5H)-one]
activity at 0.33 µM ([2]; Homo sapiens, Jurkat E6.1, test compound 0.33 μM, read-out: Percentage of the amount of IL-2 secreted from compound treated/DMSO-treated cells): 306%

IC50 [1]: ≤ 50 nM
Structure (SMILES): Cc1cccc(F)c1-n1nc2c(-c3ccc(N4CCC(N5CCOCC5)CC4)cc3)n[nH]c2cc1=O [Compound 142, 5-(2-fluoro-6-methylphenyl)-3-(4-(4-morpholinopiperidin-1-yl)phenyl)-1H-pyrazolo[4,3-c]pyridazin-6(5H)-one]
activity at 3 µM [2, 3]: 708%
